Patent US9096853B2, “Modified siRNA molecules incorporating 5-fluoro-2′-deoxyuridine residues to enhance cytotoxicity” (U.S. Department of Veterans Affairs, priority 2012, dated 2015)
d = 2'-deoxy (DNA); r = 2'-OH (RNA)

What was measured:
[1] = tested on: TS mRNA sequence in opposite orientation targeted by the sense (passenger) strand; assay: Luciferase assay, vector with TS6 target site for the sense strand; assay type: cell-based, human; conditions: RKO cells, ssiRNA 0.1 nM, 24 hr
Procedure: (§1) FIG. 3 illustrates the effect of 3′-end modification on ssiRNA strand selection. RKO cells were transfected with luciferase vectors (including the TS6 target site for either the antisense (open bars) or sense strand (hatched bars)) in combination with ssiRNAs containing different 3′-end overhangs. After 24 hr, cells were harvested and luciferase activity was determined as described in the Materials and Methods section. Firefly/renilla luciferase activity from vector-alone transfection was normalized to 100%. All values represent the mean±S.D. from at least 4 separate experiments performed in duplicate;
(§2) FIGS. 4A-C illustrate the effect of 3′-end dU incorporation on ssiRNA strand selection. RKO cells were transfected with various TS6 ssiRNAs (1 nM) for 6 hr. After an additional 48 hr, cells were harvested for immunoblot (A) and qPCR (B) analysis. (C) Luciferase vectors (containing the siRNA target site for either the sense or antisense strand) were transfected into RKO cells in combination with different ssiRNAs. After 24 hr, cells were harvested and luciferase activity was determined as described in the Materials and Methods section. Luciferase activity from vector-alone transfection was normalized to 100%. All values represent the mean±S.D. from at least 4 separate experiments performed in duplicate;
(§3) A DNA oligonucleotide corresponding to the TS6 siRNA target sequence (TS mRNA nt 1058-1077: 5′-[…]-3′- SEQ ID NO: 23) was annealed to its complimentary antisense sequence and ligated into the pGL3-Promoter plasmid (Promega; Madison, WI) at restriction sites Hind III and Nco I. The luciferase mRNA expressed from this plasmid was targeted by the antisense strand of TS6 siRNA. A second plasmid was constructed with the TS mRNA sequence inserted in the opposite orientation so that it could be targeted by the sense or passenger strand of TS6 siRNA. […] After 24 hr, cells were washed with PBS, lysed in 1×PLG buffer, and firefly and renilla luciferase levels were determined by the Dual-Luciferase™ Reporter Assay system (Promega). […]

[2] = tested on: human colon cancer RKO cell line; assay: Clonogenic assay in RKO cells; assay type: cell-based; conditions: 6 hr exposure, colonies counted after 8 days, mean ± S.D., at least 3 experiments
Procedure: RKO cells were plated in 6-well plates at a density of 600 cells/well. On the following day, cells were transfected with ssiRNA/LF2000 complexes for 6 hr after which time, the growth medium was replaced. Similarly, FdU was added to wells for 6 hr followed by medium replacement. After 8 days, cell colonies were fixed with Trypan blue solution (75% methanol/25% acetic acid/0.25% trypan blue), washed, and air-dried before counting colonies >50 cells.

[3] = tested on: p53, Fas, cleaved PARP, γH2AX, p-ATM; assay: Immunoblot of DNA damage and apoptosis signaling proteins, time course; assay type: cell-based, human; conditions: RKO cells, ssiRNA 10 nM, 0-72 hr
Procedure: FIG. 5 illustrates time-dependent effects of FdU-containing ssiRNAs on protein expression. RKO cells were transfected with various TS6 ssiRNAs (10 nM). After 6 hr, the medium was replaced, and cells were harvested for immunoblot blot analysis at the following times: before39 transfection (pre) and 0, 24, 48, and 72 hr after transfection. Images shown are representative blots from at least 4 different experiments; and
Protein concentrations of cell lysates were determined using the DC Protein Assay (Bio-Rad; Hercules, Calif.). Equal amounts of protein (30 μg) from each cell lysate were resolved on SDS-PAGE using the method of Laemmli (Reference 19) and transferred onto 0.45 μm nitrocellulose membranes (Bio-Rad). Membranes were blocked and incubated overnight with primary antibodies at 4° C. The following antibodies were used in the experiments: anti-TS (Clone 4H4B1; Invitrogen), anti-TS (#5449; Cell Signaling; San Francisco, Calif.), anti-p21 Waf1/Cip1 (#2947; Cell Signaling), anti-p53 (#sc-126; Santa Cruz Biotechnology; Santa Cruz, Calif.), anti-PARP (#9542; Cell Signaling), anti-Fas (#4233; Cell Signaling), anti-phospho-histone H2A.X (Ser139) (#2577; Cell Signaling), anti-histone H2A.X (#7631; Cell Signaling), anti-phospho-ATM (pS1981; EPITOMICS Inc.; Burlingame, Calif.), anti-ATM (#A1106; Sigma), and anti-α-tubulin (EMD Biosciences; San Diego, Calif.). After multiple TBST washes (1×TBS, 0.1% Tween-20), membranes were incubated with corresponding horseradish peroxidase-conjugated secondary antibodies (Bio-Rad) for 1 hr at room temperature. Proteins were detected by the enhanced chemiluminescence method (SuperSignal West Pico substrate; Pierce; Rockford, Ill.). Quantitation of signal intensities was performed by densitometry on a Xerox scanner using NIH IMAGEJ software.

[4] = tested on: thymidylate synthase (TS) protein; assay: Immunoblot analysis of TS protein (free and ITC-bound), Odyssey quantitation; assay type: cell-based, human; conditions: RKO cells, ssiRNA 10 nM, pre vs. 0 hr
[5] = tested on: TS6 siRNA target sequence (TS mRNA nt 1058-1077) targeted by the antisense strand; assay: Luciferase assay, vector with TS6 target site for the antisense strand; assay type: cell-based, human; conditions: RKO cells, ssiRNA 0.1 nM, 24 hr
Procedure: as §1, §2, §3

[6] = tested on: human colon cancer RKO cell line; assay: Cell proliferation assay (WST-1) in RKO cells; assay type: cell-based; conditions: 6 hr exposure then 96 hr growth, mean ± S.D., at least 3 experiments
Procedure: RKO cells were plated in 96-well plates at a density of 800 cells/well. On the following day, cells were incubated with ssiRNA/LF2000 complexes for 6 hr, after which time, the growth medium was replaced, and cells were grown for an additional 96 hr. Similarly, RKO cells were treated with FdU (#F0503, Sigma) for 6 hr followed by medium replacement and then allowed to grow for an additional 96 hr. Cell proliferation/viability was quantified by the WST-1 assay (Roche; Indianapolis, Ind.).

“TS6-dU/dA: unmodified TS-targeted ssiRNA, 5 dU on 3′-end of sense strand, 5 dA on 3′-end of antisense strand; SEQ ID NO: 3 and 4 (sense GGAUAUUGUCAGUCUUUAGGUUUUU; antisense CCUAAAGACUGACAAUAUCCAAAAA; sense: sugars from the 5' end r20 d5, backbone and T or U not given here; antisense: sugars from the 5' end r20 d5, backbone not given here)” was tested, and the “sense strand targeting, luciferase (in words)” value [1] was “significantly reduced”, the IC50 [2] was 1.77 nM and the “biomarkers of DNA damage, γH2AX and p-ATM” value [3] was “little to no effect”. The “TS protein levels immediately after transfection” value [4] was “minimally affected”, the “antisense strand targeting, luciferase (in words)” value [5] was “maintained” and the IC50 [6] was 81.9 nM.
